From PubChem BioAssay (NCI)
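Growth conditions: 96-well plates. Treatment: test compound, 48 hours, 5 concentrations. Analysis: linear interpolation between bracketing concentrations; unreached endpoints set to highest concentration. TGI is the concentration that stops growth completely.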

Assays:
Test in all cases: NCI-60 cell line screen, 48 h
U251 CNS = system: U251 CNS
NCI-H460 lung = system: NCI-H460 lung
786-0 renal = system: 786-0 renal
OVCAR-4 ovarian = system: OVCAR-4 ovarian
MOLT-4 leukemia = system: MOLT-4 leukemia
HT29 colon = system: HT29 colon
OVCAR-8 ovarian = system: OVCAR-8 ovarian
M14 melanoma = system: M14 melanoma
SNB-75 CNS = system: SNB-75 CNS
OVCAR-5 ovarian = system: OVCAR-5 ovarian
SF-295 CNS = system: SF-295 CNS
NCI-H522 lung = system: NCI-H522 lung
A498 renal = system: A498 renal
ACHN renal = system: ACHN renal
UACC-62 melanoma = system: UACC-62 melanoma
SF-539 CNS = system: SF-539 CNS
COLO 205 colon = system: COLO 205 colon
SK-MEL-5 melanoma = system: SK-MEL-5 melanoma
HOP-92 NSCLC = system: HOP-92 NSCLC
HOP-62 NSCLC = system: HOP-62 NSCLC

Row | Structure (SMILES) | TGI (U251 CNS) [µM] | TGI (NCI-H460 lung) [µM] | TGI (786-0 renal) [µM] | TGI (OVCAR-4 ovarian) [µM] | TGI (MOLT-4 leukemia) [µM] | TGI (HT29 colon) [µM] | TGI (OVCAR-8 ovarian) [µM] | TGI (M14 melanoma) [µM] | TGI (SNB-75 CNS) [µM] | TGI (OVCAR-5 ovarian) [µM] | TGI (SF-295 CNS) [µM] | TGI (NCI-H522 lung) [µM] | TGI (A498 renal) [µM] | TGI (ACHN renal) [µM] | TGI (UACC-62 melanoma) [µM] | TGI (SF-539 CNS) [µM] | TGI (COLO 205 colon) [µM] | TGI (SK-MEL-5 melanoma) [µM] | TGI (HOP-92 NSCLC) [µM] | TGI (HOP-62 NSCLC) [µM]
1 | Cc1cccc2c(NCCN(C)C)c3cccc(C(=O)NCCN(C)C)c3nc12 | 3.82 | 4.08 | 3.38 | > 100 | 0.102 | 4.16 | 10.2 | 2.44 | 0.953 | 14.4 | 3.77 | 0.114 | 4.06 | 4.33 | 0.311 | 0.68 | 1.61 | 0.962 | 1.46 | 3.93
2 | C[C@]12CCc3nonc3C1CC[C@@H]1C2CC[C@@]2(C)C1CC[C@@H]2O (some centres undefined) | > 100 | > 100 | > 100 | > 100 | > 100 | > 100 | > 100 | > 100 | > 100 | > 100 | > 100 | > 100 | > 100 | > 100 | > 100 | > 100 | > 100 | > 100 | > 100 | > 100
3 | Cc1oc2nc(N(C)C)nc(NN)c2c1C | > 100 | > 100 | > 100 | > 100 | > 100 | > 100 | > 100 | > 100 | > 100 | > 100 | > 100 | > 100 | > 100 | > 100 | > 100 | > 100 | > 100 | > 100 | > 100 | > 100
4 | CC1SC2=NC3=C(c4ccccc4C3=O)C(c3ccccc3Cl)N2C1=O (centres undefined) | > 100 | > 100 | > 100 | > 100 | > 100 | > 100 | > 100 | > 100 | > 100 | > 100 | > 100 | 96.3 | > 100 | > 100 | > 100 | > 100 | > 100 | > 100 | > 100 | > 100
5 | CN(/N=C/c1ccc(Cl)c(Cl)c1)C1=NCCCCN1 | > 100 | > 100 | 47.8 | > 100 | 80.9 | > 100 | > 100 | 29.9 | > 100 | > 100 | > 100 | 33.7 | 49.2 | > 100 | 52.8 | 61.1 | 37.2 | 27.8 | 49.6 | 35.4
6 | CCCCc1nc(C)oc1C(C)C | > 100 | > 100 | > 100 | > 100 | > 100 | > 100 | > 100 | > 100 | > 100 | > 100 | > 100 | > 100 | > 100 | > 100 | > 100 | > 100 | > 100 | > 100 | > 100 | > 100
7 | Cc1nc(-n2nc(-c3ccccc3)cc2-c2ccccc2)sc1C(=O)/C=C/c1ccc([N+](=O)[O-])cc1 | > 47.6 | > 69.3 | 29.8 | > 100 | 51.5 | > 100 | > 31.6 | 94.7 | > 67 | > 100 | > 100 | 66.1 | > 65.8 | > 52 | > 53.9 | 18.8 | > 80.6 | > 56.4 | > 85.7 | > 94.4
8 | COC(=O)c1sc2c(=O)c(C(=O)OC)c(C(=O)OC)sc2c(=O)c1C(=O)OC | > 100 | > 100 | > 100 | > 100 | > 100 | > 100 | > 100 | > 100 | > 100 | > 100 | > 100 | 65.2 | > 100 | > 100 | > 100 | > 100 | > 100 | > 100 | > 100 | > 100
9 | COc1ccc2nc3cc([N+](=O)[O-])ccc3c(Nc3ccc(S(=O)(=O)Nc4ncccn4)cc3)c2c1 | > 100 | > 100 | > 100 | > 100 | > 48.3 | > 94.8 | > 100 | > 100 | > 100 | > 100 | > 100 | > 100 | > 81.3 | > 71.8 | > 100 | > 100 | > 100 | > 100 | > 100 | > 100
10 | O=C(O)c1ccccc1/C=C1/Cc2ccc3c(c2C1=O)CCC3 | > 100 | > 100 | > 100 | > 100 | > 100 | > 100 | > 100 | > 100 | > 100 | > 100 | > 100 | > 100 | > 100 | > 100 | > 100 | 43.6 | 36.3 | 46.2 | 80.8 | > 100
11 | N#Cc1sc2c(c1OC(=O)c1ccc(Cl)cc1Cl)c(=O)n(-c1ccccc1)c(=S)n2-c1ccccc1 | 75.8 | > 100 | 77.3 | 66.5 | 45.9 | 55 | > 100 | 36.6 | > 100 | > 100 | 81.2 | 7.3 | 61.2 | > 100 | 40.4 | 39.2 | 42.2 | 34.6 | 68.9 | 96.4
12 | CCc1cccc(C(C)CC)c1NC(=O)C(=O)Cc1nc2ccccc2o1 (centres undefined) | > 50 | > 50 | > 50 | > 50 | > 42 | > 50 | > 50 | > 50 | > 50 | > 50 | > 50 | > 50 | > 50 | > 50 | > 50 | > 50 | > 50 | > 50 | > 50 | > 50
13 | COc1cccc(C=O)c1[O-].COc1cccc(C=O)c1[O-].[Zn+2] | > 100 | > 100 | > 100 | > 100 | > 100 | > 100 | > 100 | > 100 | > 100 | > 100 | 68.1 | > 100 | > 100 | > 100 | > 100 | > 100 | > 100 | > 100 | 83.6 | > 100
14 | CC(C)(C)OC(=O)N1CC(C)(C)N2C(=O)C3(CCCO3)C12 (centres undefined) | > 100 | > 100 | > 100 | > 100 | > 100 | > 100 | > 100 | > 100 | > 100 | > 100 | > 100 | > 100 | > 100 | > 100 | > 100 | > 100 | > 100 | > 100 | > 100 | > 100
15 | O=C1NC(=S)NC(=O)C1=CC1CC1 | > 100 | > 100 | > 100 | > 100 | > 100 | > 100 | > 100 | > 100 | > 100 | > 100 | > 100 | > 100 | > 100 | > 100 | > 100 | > 100 | > 100 | > 100 | > 100 | > 100
16 | COc1ccc(N/N=C/C2=CC(C)(C)C(C#N)(C#N)C(O)=C2C#N)cc1 | > 100 | > 100 | > 100 | > 100 | > 100 | > 100 | > 100 | > 100 | > 100 | > 100 | > 100 | > 100 | 81 | > 100 | > 100 | > 100 | 49.8 | > 100 | 75.6 | > 100
17 | Brc1ccc(C=NC23CC4CC(CC(C4)C2)C3)cc1 | > 100 | > 100 | > 100 | > 100 | > 100 | > 100 | > 100 | > 100 | > 100 | > 100 | > 100 | > 100 | > 100 | > 100 | > 100 | > 100 | > 100 | > 100 | > 100 | > 100
18 | c1cc(C2=NCCO2)c2ccsc2c1 | > 100 | > 100 | > 100 | > 100 | > 100 | > 100 | > 100 | > 100 | 99.1 | > 100 | > 100 | > 100 | > 100 | > 100 | > 100 | > 100 | > 100 | > 100 | > 100 | > 100
19 | CC12C3CC4C5CC(C(C53)[C@@H]1NCc1ccccc1)C42 (some centres undefined) | > 100 | > 100 | > 100 | > 100 | > 100 | > 100 | > 100 | > 100 | > 100 | > 100 | > 100 | > 100 | > 100 | > 100 | > 100 | > 100 | 75.3 | > 100 | > 100 | > 100
20 | NNC(=O)CC(=O)Nc1ccc(S(=O)(=O)c2ccc(NC(=O)CC(=O)NN)cc2)cc1 | > 100 | > 100 | > 100 | > 100 | > 100 | > 100 | > 100 | > 100 | > 100 | > 100 | > 100 | > 100 | > 100 | > 100 | > 100 | > 100 | > 100 | > 100 | > 100 | > 100
21 | O=c1[nH]nc(CNc2ccc(Cl)cc2Cl)c2ccccc12 | 37.9 | 84.5 | 41.3 | 39.8 | > 100 | > 100 | – | > 100 | 60.8 | > 100 | 44.7 | 41.7 | 33.7 | 46.2 | > 100 | 41 | > 100 | 50.6 | 80.1 | 43
22 | O=S1(=O)c2ccccc2N2C(c3ccccc3)=NOC2(c2ccccc2)CC1c1ccc(Br)cc1 (centres undefined) | > 100 | > 100 | > 100 | > 100 | > 100 | > 100 | > 100 | > 100 | > 100 | > 100 | > 100 | > 100 | > 100 | > 100 | > 100 | > 100 | > 100 | > 100 | > 100 | > 100
23 | CN(C)/C=C/c1c2c(nc3ccccc13)C(=O)c1cccnc1C2=O | 5.9 | 0.532 | 1.33 | 4.01 | 6.98 | 5.15 | 3.2 | 0.597 | 4.66 | 3.95 | 1.62 | 1.13 | 2.31 | 2.28 | 1.25 | 1.21 | 5.55 | 0.346 | 11.5 | 0.435
24 | O=C(O)/C=C/c1ccc(OS(=O)(=O)O)cc1 | > 100 | > 100 | > 100 | > 100 | > 100 | > 100 | > 100 | > 100 | > 100 | > 100 | > 100 | > 100 | > 100 | > 100 | > 100 | > 100 | > 100 | > 100 | > 100 | > 100
